Data on five molecules can be found in ChEMBL document CHEMBL5465560, “Selectivity Literature for EUbOPEN Chemogenomic Library” (2024).

One experiment addresses Insulin receptor (Homo sapiens, UniProt P06213). Description: Selectivity interaction (ProQinase) EUB0000171b INSR. The settings on record: at 1 µM.
In experiment [1] the target is T1, Ephrin type-B receptor 6 (Homo sapiens) (UniProt O15197).
T1 sequence (whole entry): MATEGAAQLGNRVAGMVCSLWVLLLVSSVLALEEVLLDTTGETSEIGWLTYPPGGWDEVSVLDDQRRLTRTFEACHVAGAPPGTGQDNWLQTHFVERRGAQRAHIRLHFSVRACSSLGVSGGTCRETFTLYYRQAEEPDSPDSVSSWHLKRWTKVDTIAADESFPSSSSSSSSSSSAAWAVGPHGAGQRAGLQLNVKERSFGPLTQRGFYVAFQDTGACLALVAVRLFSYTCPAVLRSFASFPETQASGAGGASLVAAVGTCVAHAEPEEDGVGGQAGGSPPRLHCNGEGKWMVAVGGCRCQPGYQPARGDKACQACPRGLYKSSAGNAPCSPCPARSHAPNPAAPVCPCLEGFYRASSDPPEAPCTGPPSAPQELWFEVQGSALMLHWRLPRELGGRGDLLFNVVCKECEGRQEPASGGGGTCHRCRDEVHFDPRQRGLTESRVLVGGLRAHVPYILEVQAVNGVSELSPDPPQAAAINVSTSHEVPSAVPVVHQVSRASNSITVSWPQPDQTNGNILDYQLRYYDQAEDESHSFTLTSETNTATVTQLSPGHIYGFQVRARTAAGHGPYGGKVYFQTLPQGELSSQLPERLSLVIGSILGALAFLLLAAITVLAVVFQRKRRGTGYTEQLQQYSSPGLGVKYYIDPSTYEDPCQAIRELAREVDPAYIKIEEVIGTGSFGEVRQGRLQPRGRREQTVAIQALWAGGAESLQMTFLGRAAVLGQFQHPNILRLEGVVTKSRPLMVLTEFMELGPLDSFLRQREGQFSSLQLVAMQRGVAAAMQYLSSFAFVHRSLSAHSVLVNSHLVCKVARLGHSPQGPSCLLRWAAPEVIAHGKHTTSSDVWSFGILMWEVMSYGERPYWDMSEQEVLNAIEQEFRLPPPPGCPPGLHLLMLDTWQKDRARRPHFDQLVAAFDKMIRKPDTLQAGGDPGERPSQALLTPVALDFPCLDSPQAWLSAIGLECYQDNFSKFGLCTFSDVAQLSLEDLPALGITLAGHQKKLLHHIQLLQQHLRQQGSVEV
Description: Selectivity interaction (KinomeScan (DiscoverX)) EUB0001079a EPHB6. Particulars: at 1 µM.

For experiment [2], the target named is T2, Tyrosine-protein kinase Tec (Homo sapiens) (UniProt P42680).
T2 sequence (whole entry): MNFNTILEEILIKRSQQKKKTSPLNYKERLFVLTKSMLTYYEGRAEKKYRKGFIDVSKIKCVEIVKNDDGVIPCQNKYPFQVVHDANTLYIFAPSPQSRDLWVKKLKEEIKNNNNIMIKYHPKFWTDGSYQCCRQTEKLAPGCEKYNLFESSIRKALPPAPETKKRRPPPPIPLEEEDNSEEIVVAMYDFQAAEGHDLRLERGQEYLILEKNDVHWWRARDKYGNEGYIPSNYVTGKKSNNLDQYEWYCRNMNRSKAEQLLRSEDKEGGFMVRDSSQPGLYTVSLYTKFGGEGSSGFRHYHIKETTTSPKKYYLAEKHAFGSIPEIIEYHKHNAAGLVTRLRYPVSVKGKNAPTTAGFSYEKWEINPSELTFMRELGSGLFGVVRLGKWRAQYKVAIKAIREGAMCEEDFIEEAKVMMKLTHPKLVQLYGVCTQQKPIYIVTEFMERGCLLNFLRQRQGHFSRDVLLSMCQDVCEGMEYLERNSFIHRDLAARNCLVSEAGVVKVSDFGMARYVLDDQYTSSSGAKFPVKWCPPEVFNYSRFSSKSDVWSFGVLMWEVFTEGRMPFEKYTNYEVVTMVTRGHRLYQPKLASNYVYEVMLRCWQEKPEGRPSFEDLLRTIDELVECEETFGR
Description: Selectivity interaction (KinomeScan (DiscoverX)) EUB0000666a TEC. Particulars: at 10 µM.

Experiment [3] concerns the target Mitogen-activated protein kinase 11 (Homo sapiens) (UniProt Q15759). Description: Selectivity interaction (KinomeScan (DiscoverX)) EUB0000607a MAPK11. Particulars: at 10 µM.
In experiment [4] the target is T3, SNF-related serine/threonine-protein kinase (Homo sapiens) (UniProt Q9NRH2).
T3 sequence (whole entry): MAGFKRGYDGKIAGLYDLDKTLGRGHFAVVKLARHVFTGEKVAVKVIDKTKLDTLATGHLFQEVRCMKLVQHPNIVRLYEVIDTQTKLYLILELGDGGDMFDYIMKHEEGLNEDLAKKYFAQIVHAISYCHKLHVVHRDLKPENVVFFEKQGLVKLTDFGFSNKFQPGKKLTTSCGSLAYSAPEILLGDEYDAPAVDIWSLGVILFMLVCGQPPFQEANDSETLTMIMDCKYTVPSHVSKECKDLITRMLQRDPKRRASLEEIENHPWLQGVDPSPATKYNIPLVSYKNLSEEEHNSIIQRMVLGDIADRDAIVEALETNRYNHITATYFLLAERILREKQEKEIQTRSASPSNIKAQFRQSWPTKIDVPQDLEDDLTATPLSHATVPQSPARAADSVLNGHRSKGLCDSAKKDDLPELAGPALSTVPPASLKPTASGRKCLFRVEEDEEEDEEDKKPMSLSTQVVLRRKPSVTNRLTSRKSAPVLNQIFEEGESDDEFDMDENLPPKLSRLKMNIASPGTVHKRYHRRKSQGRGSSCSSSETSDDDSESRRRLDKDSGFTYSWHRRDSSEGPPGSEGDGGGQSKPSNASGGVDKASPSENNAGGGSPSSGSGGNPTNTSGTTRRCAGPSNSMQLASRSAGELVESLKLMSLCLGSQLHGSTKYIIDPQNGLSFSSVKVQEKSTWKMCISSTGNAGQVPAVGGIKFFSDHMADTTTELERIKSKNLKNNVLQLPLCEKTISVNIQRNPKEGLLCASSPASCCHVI
Kind of experiment: Selectivity interaction (Kinase panel (KiNativ target engagement assay in Jurkat cells)) EUB0001635a SNRK. Type of experiment: cell-based. The settings on record: at 1 µM.

Molecules are shown by their SMILES.

Chain of Mitogen-activated protein kinase 11 (Homo sapiens) (Q15759 whole entry): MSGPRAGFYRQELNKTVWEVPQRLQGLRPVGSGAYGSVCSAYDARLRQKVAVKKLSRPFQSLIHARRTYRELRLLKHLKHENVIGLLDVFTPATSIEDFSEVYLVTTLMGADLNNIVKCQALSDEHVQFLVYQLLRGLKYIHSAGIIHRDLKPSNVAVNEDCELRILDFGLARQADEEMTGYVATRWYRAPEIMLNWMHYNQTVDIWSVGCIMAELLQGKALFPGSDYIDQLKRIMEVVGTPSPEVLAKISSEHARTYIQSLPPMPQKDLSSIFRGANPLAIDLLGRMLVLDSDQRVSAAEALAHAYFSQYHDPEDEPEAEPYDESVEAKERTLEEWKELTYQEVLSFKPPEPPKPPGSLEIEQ
Chain of Insulin receptor (P06213 28-758 limits assumed): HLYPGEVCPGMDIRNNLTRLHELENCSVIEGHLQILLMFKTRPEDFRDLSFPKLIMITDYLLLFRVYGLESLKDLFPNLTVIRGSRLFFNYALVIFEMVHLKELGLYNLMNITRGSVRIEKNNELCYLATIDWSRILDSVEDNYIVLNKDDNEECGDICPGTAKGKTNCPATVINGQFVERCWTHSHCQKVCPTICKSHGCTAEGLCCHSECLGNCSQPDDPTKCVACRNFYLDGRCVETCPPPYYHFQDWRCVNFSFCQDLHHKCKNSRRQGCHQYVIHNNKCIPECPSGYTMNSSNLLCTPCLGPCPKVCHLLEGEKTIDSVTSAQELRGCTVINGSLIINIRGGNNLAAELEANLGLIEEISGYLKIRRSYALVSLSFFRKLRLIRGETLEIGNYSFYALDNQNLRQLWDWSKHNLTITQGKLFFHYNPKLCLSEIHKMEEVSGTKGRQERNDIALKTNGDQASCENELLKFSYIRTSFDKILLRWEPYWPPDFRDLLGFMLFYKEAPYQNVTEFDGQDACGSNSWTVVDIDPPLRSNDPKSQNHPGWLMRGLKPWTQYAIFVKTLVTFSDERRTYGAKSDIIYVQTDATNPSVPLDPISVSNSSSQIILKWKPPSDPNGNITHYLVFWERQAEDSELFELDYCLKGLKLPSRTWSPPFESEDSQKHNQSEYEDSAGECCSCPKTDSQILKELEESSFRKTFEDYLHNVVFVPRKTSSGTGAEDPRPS
Chain of Insulin receptor (P06213 763-1382 limits assumed): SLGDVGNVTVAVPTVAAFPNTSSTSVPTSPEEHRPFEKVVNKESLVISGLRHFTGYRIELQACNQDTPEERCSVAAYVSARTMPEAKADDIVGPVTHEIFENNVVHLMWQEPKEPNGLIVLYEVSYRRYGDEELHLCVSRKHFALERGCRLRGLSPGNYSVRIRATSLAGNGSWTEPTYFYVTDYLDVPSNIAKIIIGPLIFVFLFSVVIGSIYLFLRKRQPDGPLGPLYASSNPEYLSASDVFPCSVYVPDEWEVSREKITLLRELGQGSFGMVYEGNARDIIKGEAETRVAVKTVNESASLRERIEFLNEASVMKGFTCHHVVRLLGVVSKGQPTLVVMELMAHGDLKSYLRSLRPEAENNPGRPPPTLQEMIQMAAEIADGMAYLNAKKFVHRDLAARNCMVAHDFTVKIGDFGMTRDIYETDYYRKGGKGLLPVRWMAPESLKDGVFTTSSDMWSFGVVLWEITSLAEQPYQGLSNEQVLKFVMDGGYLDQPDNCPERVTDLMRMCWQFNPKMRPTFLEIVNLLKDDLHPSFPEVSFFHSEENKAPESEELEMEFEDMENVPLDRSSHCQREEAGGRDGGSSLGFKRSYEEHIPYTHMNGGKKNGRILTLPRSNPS

On Insulin receptor, `C=CC(=O)Nc1cccc(C(=O)Nc2ccc(Nc3cc(-c4[nH]c(SC)nc4C)ccn3)cc2)c1` gave a % of control of 81%.
In experiment [1], `Nc1cnc(N2CCc3cc(S(=O)(=O)Nc4c(F)cc(Cl)cc4F)cc(N4CCCC4=O)c32)nc1` [TP-020n] registered a % of control of 100%.
Regarding `O=C(NOC[C@H](O)CO)c1ccc(F)c(F)c1Nc1ccc(I)cc1F`, the % of control in experiment [2] amounted to 100%.
For the molecule `CNC(=O)Nc1ccc(-c2nc(N3CC4CCC(C3)O4)c3cnn(C4CCC5(CC4)OCCO5)c3n2)cc1`, the % of control in experiment [3] turned out to be 100%.
For the molecule `C=CC(=O)Nc1ccc(C(=O)Nc2[nH]nc3c2CN(C(=O)N[C@H](CN(C)C)c2ccccc2)C3(C)C)cc1`, the % of engagement in experiment [4] (Selectivity number of off-targets 0.0, Selectivity number of targets 233.0, Source Knowledge https://www.sciencedirect.com/science/article/pii/S2451945619300674?via%3Dihub) was found to be 6.9%; in experiment [4], 30.4%.
